{"source": "paper PMC9253268", "about": "(Frontiers in Immunology, 2022)", "key": {"recombinant TLR4 protein": {"molecular_target": "T1, recombinant TLR4 protein (Homo sapiens, UniProt O00206)", "T1 construct": "purchased Abcam ab233665", "T1 sequence (O00206 24-839)": "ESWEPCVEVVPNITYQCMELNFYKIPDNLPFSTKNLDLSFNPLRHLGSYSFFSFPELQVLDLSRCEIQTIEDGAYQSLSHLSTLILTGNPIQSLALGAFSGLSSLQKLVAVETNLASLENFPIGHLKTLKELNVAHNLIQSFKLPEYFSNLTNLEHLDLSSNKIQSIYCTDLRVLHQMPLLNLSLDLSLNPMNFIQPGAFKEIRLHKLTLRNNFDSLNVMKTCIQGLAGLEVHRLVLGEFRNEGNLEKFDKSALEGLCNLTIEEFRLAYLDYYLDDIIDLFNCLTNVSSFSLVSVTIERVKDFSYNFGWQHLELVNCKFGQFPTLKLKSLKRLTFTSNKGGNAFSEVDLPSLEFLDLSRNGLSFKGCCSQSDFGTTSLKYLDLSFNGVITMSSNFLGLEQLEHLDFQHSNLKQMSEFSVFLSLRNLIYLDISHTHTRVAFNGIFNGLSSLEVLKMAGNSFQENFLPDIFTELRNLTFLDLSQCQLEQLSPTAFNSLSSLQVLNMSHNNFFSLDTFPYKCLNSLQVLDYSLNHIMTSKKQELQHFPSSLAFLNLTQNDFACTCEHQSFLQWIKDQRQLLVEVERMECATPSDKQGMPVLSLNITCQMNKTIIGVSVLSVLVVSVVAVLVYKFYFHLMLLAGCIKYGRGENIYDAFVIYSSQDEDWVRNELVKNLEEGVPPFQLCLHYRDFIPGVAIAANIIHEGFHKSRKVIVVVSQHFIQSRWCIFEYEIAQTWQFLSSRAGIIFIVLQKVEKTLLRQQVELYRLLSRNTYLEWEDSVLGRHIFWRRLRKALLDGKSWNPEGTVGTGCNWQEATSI", "assay": "Microscale thermophoresis (MST) binding assay", "conditions": "1:1 binding mode, read-out: mean KD, CA–TLR4", "protocol": "The binding affinity between recombinant TLR4 protein and CA was measured by a NanoTemper Monolith NT.115 instrument (NanoTemper Technologies, Germany). The K D value was fitted by NanoTemper Monolith affinity software (NanoTemper Technologies, Germany) using 1:1 binding mode. Detailed information on the MST assay is provided in Supplementary Materials Section 12 . […]\ncompound was greater than 9.0×106cm/s and 40% which indicated drug-like […]\nSection 11 Surface plasmon resonance (SPR) assay\nSPR binding assays were analyzed with Biacore 8K (Biacore, Cytiva). Materials and reagents used in SPR assays were purchased from Cytiva. […]\nUK) and CA contained in BHGZD was measured by NanoTemper Monolith NT.115 instrument (NanoTemper Technologies, Germany). […]\nAfter the protein labeling experiment was completed, TLR4 was diluted with binding buffer (20mM HEPES, pH 7.4, 100mM NaCl and 0.005% Tween 20) to ensure that the fluorescence intensity of TLR4 during the MST assay was about 500 RU. […]\nAfter incubation, the samples were loaded into the premium treated capillaries and measured in NanoTemper Monolith NT.115 instrument (NanoTemper Technologies, Germany). […]\nThe pharmacokinetic parameters were calculated by Drug and Statistic software"}, "[1]": {"assay": "In vivo pharmacokinetic analysis of MG and CA after oral BHGZD (UHPLC-QTRAP-MS/MS)", "conditions": "rat plasma after oral BHGZD 21.4 g/kg each day, n = 3", "protocol": "The pharmacokinetic parameters were calculated by Drug and Statistic software (Shanghai, China). Detailed information on the collection of blood samples and UHPLC-QTRAP-MS/MS conditions is provided in Supplementary Materials Section 13 . […]\nSection 13 Pharmacokinetic analysis […]\nadministration of BHGZD, ultra-fast liquid chromatography coupled with triple quadrupole-linear ion trap composite mass spectrometry (UHPLC-QTRAP-MS/MS) system was […]\nBioanalytical Method Validation issued by Chinese Pharmacopoeia Commission in 2020.\nThe pharmacokinetic parameters were calculated by Drug and Statistic software […]\n1) Collection of blood samples\nMale Lewis rats (n=6, 6-8 weeks-old, 200±20g in weight) were purchased from Beijing Vital River Laboratory Animal Technology Co., Ltd. (SCCK 2016-0006, Beijing, China; n=3 per group, including normal control group and normal control+BHGZD treatment group).\nDiet was prohibited for 12h before the experiment but water was freely available. Blood samples (~0.25mL) were collected from the retinal venous plexus into heparinized 1.5mL polythene tubes before administration and 0, 0.25, 0.5, 1, 2, 3, 4, 6, 8,12 and 24h after administration of BHGZD. The plasma samples were obtained after centrifuging at 12000rpm for 15min, and stored at -20℃ prior to analysis.\n2) UHPLC-QTRAP-MS/MS conditions\nQuantification analysis were performed on an ultra-high-performance liquid chromatography (Shimadzu Corp., Japan) tandem ion trap quadrupole QTRAP 6500 plus mass spectrometry (AB Sciex, USA). Chromatographic separation was conducted using a Poroshell 120 EC-C18 column (3.0×50mm, 2.7μm) at 40℃. The mobile phase was consisted of 0.1% formic acid–water (v/v, A) and methanol (B) and elution program were:\nMass spectrometry detector were conducted in negative mode and the detecting parameters were set as follows: curtain gas, 35 psi; collision gas, medium; ionspray voltage, 4500 V; temperature, 550℃; ion source gas 1 and 2, 55psi. Quantitative ion pairs were optimized for MG: m/z 421.2-301.1 (declustering potential: 63V, CE: 30eV) and for […]\nData acquisition and analysis"}, "RAW264.7 cells [2]": {"tested_on": "RAW264.7 cells", "assay": "Cell viability, CCK-8 assay", "format": "cell-based, mouse", "conditions": "0.21–6.74 ng/ml MG or 0.02–0.52 ng/ml CA treatment alone", "protocol": "Cell viability was analyzed with the cell counting kit-8 (CCK-8) assay kit (Beyotime Biotechnology, Shanghai, China) as described in Supplementary Materials Section 16 .\nSection 16 Cell proliferation assay\nCell viability was analyzed with Cell Counting Kit-8 (CCK-8) assay kit (Beyotime Biotechnology, China). Raw264.7 cells were seeded into 96-well plate, and after […]\nsolution was added to each well. The absorbance was measured after 4h of incubation at […]\nSection 17 Flow cytometry\nTo identify and quantify of pyroptosis population of Raw264.7 cells, FITC Apoptosis Detection kit I staining with both the Annexin V-fluorescein isothiocyanate and propidium iodide (PI, BD Biosciences, San Jose, CA, USA) was used in accordance with manufacturer's guidelines. Briefly, Raw264.7 cells was washed twice with cold PBS and then resuspended in 1×binding buffer at a concentration of 1x10^6 cells/mL. Then, 100µL of the solution (1x10^5 cells) was transferred to a 5 mL culture tube. Subsequently, 5µL of FITC Annexin V and 5µL PI were added into cultured tube, and vortexed and incubated for 15 min at room temperature in the dark. Finally, 400µL 1×binding buffer was added into each tube, and analyzed by flow cytometry (ACEA Bioscience, San Diego, CA, USA) and NovoExpress 1.4.1 software (ACEA Bioscience, San Diego, CA, USA) within 1h."}, "RAW264.7 cells [3]": {"tested_on": "RAW264.7 cells", "assay": "LPS/ATP-induced pyroptosis in RAW264.7 cells (flow cytometry, FAM-FLICA, immunofluorescence, Western blotting, ELISA)", "format": "cell-based, mouse", "excerpt": "(§1) Mouse macrophage cell line (RAW264.7 cells, Bio-Swamp, Wuhan, China) and fibroblast-like synoviocytes in patients with RA (MH7A cells, Riken cell bank, Ibaraki, Japan) at passage numbers four to eight were used in the current experiment validations.\n(§2) The concentration of DMSO was less than 1‰ of the solution for the in vitro experiment.\nFluorescence images were visualized and photographed with a confocal microscope (Zeiss LSM 880, Carl Zeiss, Jena, Germany).\nThe images were visualized and photographed with a confocal microscope (Zeiss LSM 880, Carl Zeiss, Jena, Germany) or an inverted fluorescence microscope (MF53, MSHOT, Guangzhou, China).\n(§3) To evaluate the therapeutic effects of two BACs from BHGZD on the regulation of the “immune-inflammation” system, the levels of cytokines, proteins, and LDH release in RAW264.7 and MH7A cellular supernatant, as well as the sera of AIA-M rats were determined using enzyme-linked immunosorbent assay (ELISA) to assess the integrity of membranes in accordance with the manufacturer’s guidelines.\nRaw264.7 cells were maintained in DMEM (Hyclone, Logan, UT, USA), supplemented\n100μg/mL streptomycin and 2mM L-glutamine (TBD, Tianjin, China) in a humidified 5%\nCO2 incubator at the temperature of 37℃. The Raw264.7 cells at passage numbers four\nto eight were used in the current experiment validations.\nMH7A cells were cultured in sterile synoviocyte growth medium (Cell Applicatio ns, Inc.,\nL-glutamine (TBD, Tianjin, China) in a humidified 5% CO2 incubator at the temperature of\n37℃. MH7A at passage numbers four to eight were used in the current experiment\n(§4) To induce a conventional NLRP3 inflammasome activation, Raw264.7cells was induced\n(§5) with 0.2μg/mL lipopolysaccharide [LPS, Escherichia coli (O111:B4), Sigma-Aldrich, St\n(§6) Louis, MO, USA] for 4h, followed with a 3mM ATP adenosine triphosphate (ATP disodium\n(§7) salt hydrate, Sigma-Aldrich, St Louis, MO, USA) for 1h of incubation at 37℃ with 5% CO2\n(§8) For MH7A cells LPS/ATP-induced pyrotosis, MH7A cells were induced with 1μg/mL LPS\n(§9) for 6h, followed with a 3mM ATP for 1h of incubation at 37℃ with 5% CO2 (11)."}, "MH7A cells": {"tested_on": "MH7A cells", "assay": "LPS/ATP-induced pyroptosis in MH7A cells (TUNEL, immunofluorescence, Western blotting, ELISA)", "format": "cell-based, human", "excerpt": "as §1\nThe conventional NLRP3 inflammasome activation cellular model was induced by lipopolysaccharide [LPS, Escherichia coli (O111:B4), Sigma-Aldrich, St Louis, MO, USA] and adenosine triphosphate (ATP disodium salt hydrate, Sigma-Aldrich, St Louis, MO, USA) as in our previous study ([22]) ( Supplementary Materials Section 15 ).\nas §2\nThe occurrence of pyroptosis in both MH7A cells and synovium tissues in AIA-M rats was determined by in situ TUNEL staining (TUNEL Andy Fluor™ 594 Apoptosis Detection Kit, ABP Biosciences, Wuhan, China) in accordance with the manufacturer’s protocol. Fluorescence images were visualized and photographed with inverted fluorescence microscopes (MF53, MSHOT, Guangzhou, China; Olympus, BX51, Tokyo, Japan).\nDouble fluorescence staining was performed as described previously ([22]) ( Supplementary Materials Section 20 ). The images were visualized and photographed with a confocal microscope (Zeiss LSM 880, Carl Zeiss, Jena, Germany) or an inverted fluorescence microscope (MF53, MSHOT, Guangzhou, China).\nTo evaluate the regulation of BHGZD on the candidate targets in arthritic tissue samples, as well as RAW264.7 and MH7A cells, Western blotting analysis was carried out following the protocol as in our previous studies ([21], [24], [29]). TLR4, phospho-PI3K (p-PI3K), PI3K, p-AKT, p-NFκB-p65, NFκB-p65, NLRP3, ASC, caspase-1, the N-terminal domain of GSDMD (GSDMD-NT), and IL-1β antibodies were used as shown in Supplementary Table S3 . GAPDH (GAPDH Mouse monoclonal antibody, Abcam, Cambridge, UK) and β-actin (Anti-beta-Actin/β-Actin Antibody, Boster Biological Technology, California, USA) were used as loading controls for arthritic tissue samples and cultured cells, respectively.\nas §3, §4, §5, §6, §7, §8, §9"}, "[4]": {"conditions": "LPS/ATP-induced RAW264.7 cells, all p < 0.05"}, "[5]": {"conditions": "LPS/ATP-induced, BHGZD 28.54 μg/ml, MG 1.69 ng/ml, CA 0.13 ng/ml, 24 h"}, "[6]": {"conditions": "LPS/ATP-induced MH7A cells, all p < 0.05"}}, "data": [{"molecule": "O=C(O)/C=C/c1ccccc1", "note": "[CA, cinnamic acid]", "values": [{"measurement": "Kd", "setting": "recombinant TLR4 protein", "result": 211, "unit": "µM"}, {"measurement": "t1/2z", "setting": "[1]; apparent elimination half-life", "result": "1.65 ± 1.34", "unit": "h"}, {"measurement": "Cmax", "setting": "[1]; male, Lewis, rat, plasma, po, 21.4 g/kg, non-compartment model, read-out: Cmax", "result": "120 ± 25.9", "unit": "ng/mL"}, {"measurement": "AUC(0-t)", "setting": "[1]; male, Lewis, 0-24 h", "result": "102 ± 67.8", "unit": "ng·h/mL"}, {"measurement": "AUC(0-inf)", "setting": "[1]; male, Lewis", "result": "144 ± 30.4", "unit": "ng·h/mL"}, {"measurement": "MRT last", "setting": "[1]; male, Lewis, read-out: MRT(0-t)", "result": "1.93 ± 0.35", "unit": "h"}, {"measurement": "MRT inf", "setting": "[1]; male, Lewis, read-out: MRT(0-∞)", "result": "2.26 ± 0.8", "unit": "h"}, {"measurement": "cell viability (CCK8)", "setting": "RAW264.7 cells [2]", "result": "no cell toxicity"}, {"measurement": "GSDMD-NT", "setting": "RAW264.7 cells [3]; LPS/ATP-induced RAW264.7 cells, Western blotting", "result": "decreased"}, {"measurement": "expression levels of NLRP3, ASC, and caspase-1", "setting": "RAW264.7 cells [3]; [4]", "result": "reduced"}, {"measurement": "levels of IL-1β, IL-18, and LDH release in the supernatant", "setting": "RAW264.7 cells [3]; [4]", "result": "reduced"}, {"measurement": "PI positive cell rate", "setting": "RAW264.7 cells [3]; LPS/ATP-induced, 1.69 ng/ml MG, 0.13 ng/ml CA, 24 h, inferior to BHGZD, all p < 0.05", "result": "prominently reduced"}, {"measurement": "number of FLICA-positive RAW264.7 cells", "setting": "RAW264.7 cells [3]; [5]", "result": "reduced"}, {"measurement": "inhibition on cell pyroptosis induced by LPS/ATP, alone versus combination", "setting": "RAW264.7 cells [3]; RAW264.7 and MH7A cells, all p < 0.05", "result": "weaker than that in the two-BAC combination treatment group"}, {"measurement": "GSDMD-NT", "setting": "MH7A cells; LPS/ATP-induced MH7A cells, Western blotting", "result": "decreased"}, {"measurement": "expression levels of NLRP3, ASC, and caspase-1", "setting": "MH7A cells; [6]", "result": "reduced"}, {"measurement": "levels of IL-1β, IL-18, and LDH release in the supernatant", "setting": "MH7A cells; [6]", "result": "reduced"}, {"measurement": "number of TUNEL-positive MH7A cells", "setting": "MH7A cells; [5]", "result": "reduced"}]}]}
